These results are taken from paper PMC6801822, “The Bactericidal Activity of Temporin Analogues Against Methicillin Resistant Staphylococcus aureus” (International Journal of Molecular Sciences, 2019).

In data set [1] the test system is S. aureus USA300. Briefly: microbe, parasite or virus in culture. The settings on record: Staphylococcus aureus, MRSA / USA300, 24 h.
Description: (§1) Antimicrobial activity of peptides was analyzed through determination of MIC parameter according to the standard microdilution technique performed on 96-well plates. Mueller-Hinton broth (MHB, Sigma Aldrich, St. Louis, MO, USA) was used as the working medium for all bacterial strains. Briefly, inoculum was prepared from freshly grown cultures of bacteria being at their exponential phase of growth. Each well of 96-well plates containing 100 µL of serially diluted peptides in PBS at desired concentration was inoculated with 100 µL of 10^5 CFU/mL of bacterial suspension. Then plates were incubated overnight 37 °C and absorbance was read at 600 nm after 24 h. Wells without peptide were treated as the positive control, while uninoculated MHB was defined as the negative control. All measurements were run in triplicates.
In data set [2] the test system is S. aureus USA300. The following applies: for MIC: USA300, 24 h.
Description: as §1
For data set [3] the following is noted: cited from earlier work. The source says:
The efficient antibacterial activity of the DAL-PEG-DK5 conjugate may be due to the fact that it has a higher cationic charge than DK5 (+7 vs. +6, respectively). However, a α-helicity must also play an important role in this case. According to a common view about the mechanism underlying the antimicrobial activity of AMPs, formation of hel ...

Data set [4] has as its system S. epidermidis ATCC 12228. The following applies: ATCC 12228, 24 h.
Description: as §1
The test system of the next data set is S. aureus ATCC 25923. The following applies: ATCC 25923, 24 h.
The next data set has as its system S. aureus Newman. The following applies: Newman, 24 h.
The test system of data set [5] is intracellular MRSA clinical isolate. The settings on record: cited from earlier work; for MIC: MRSA clinical isolate. The source says: Cumulatively, these findings encouraged us to test the ability of the peptide conjugate to kill invasive intracellular MRSA. […] In addition, ...

≈ marks a conversion by molar mass, not a printed value. Where two headings read alike, the source gives them in different places. Non-standard residues stand in square brackets, D forms with d. Residues, ends and D or L forms follow the SMILES beside them. AEEA = NCCOCCOCC(=O)O; βAla = NCCC(=O)O

Description for S. aureus ATCC 25923: as §1
Description for S. aureus Newman: as §1

Take `CC(=O)NC[C@H]1CN(c2ccc(N3CCOCC3)c(F)c2)C(=O)O1` [Linezolid, linezolid]: the MIC against S. aureus USA300 [1] turned out to be 1 µg/mL (≈ 2.96 µM).
The same measure, in the same setting: as for `CN[C@H](CC(C)C)C(=O)N[C@H]1C(=O)N[C@@H](CC(N)=O)C(=O)N[C@H]2C(=O)N[C@H]3C(=O)N[C@H](C(=O)N[C@H](C(=O)O)c4cc(O)cc(O)c4-c4cc3ccc4O)[C@H](O)c3ccc(c(Cl)c3)Oc3cc2cc(c3O[C@@H]2O[C@H](CO)[C@@H](O)[C@H](O)[C@H]2O[C@H]2C[C@](C)(N)[C@H](O)[C@H](C)O2)Oc2ccc(cc2Cl)[C@H]1O` [Vancomycin, vancomycin], the figure is 1 µg/mL (≈ 0.69 µM).
For `CC[C@H](C)[C@H](N)C(=O)N[C@@H](CCCCN)C(=O)N[C@@H](CCCCN)C(=O)N[C@H](C(=O)N[C@@H](CC(C)C)C(=O)N[C@@H](CO)C(=O)N[C@H](CCCCN)C(=O)N[C@H](C(=O)N[C@@H](CCCCN)C(=O)N[C@@H](CCCCN)C(=O)N[C@@H](CC(C)C)C(=O)N[C@@H](CC(C)C)C(=O)NCCOCCOCC(=O)N[C@@H](Cc1ccc(O)cc1)C(=O)N[C@H](C)C(=O)NCC(=O)N[C@@H](Cc1ccccc1)C(=O)N[C@@H](CC(C)C)C(=O)N[C@@H](CCCNC(=N)N)C(N)=O)[C@@H](C)CC)[C@@H](C)CC` [DK5-PEG-DAL] (H-IKKILS[dK]IKKLL[AEEA]Y[dA]GFLR-NH2; N-terminus and C-terminus assumed), in the data set on S. aureus USA300 [2] (comparison of MIC 160 vs 40 μg/mL), the “inhibition of USA300 growth relative to DAL-PEG-DK5” value is given as “four times less”. For the same compound, the α-helical content in data set [3] (circular dichroism, 30 mM SDS in water) is on record as 20%.
As for `CC[C@H](C)[C@H](NC(=O)COCCOCCNC(=O)[C@H](Cc1c[nH]cn1)NC(=O)CCNC(=O)[C@H](Cc1c[nH]cn1)NC(=O)CCNC(=O)[C@H](Cc1c[nH]cn1)NC(=O)CCN)C(=O)N[C@@H](CCCCN)C(=O)N[C@@H](CCCCN)C(=O)N[C@H](C(=O)N[C@@H](CC(C)C)C(=O)N[C@@H](CO)C(=O)N[C@H](CCCCN)C(=O)N[C@H](C(=O)N[C@@H](CCCCN)C(=O)N[C@@H](CCCCN)C(=O)N[C@@H](CC(C)C)C(=O)N[C@@H](CC(C)C)C(N)=O)[C@@H](C)CC)[C@@H](C)CC` [CAR3-PEG-DK5] (H-[βAla]H[βAla]H[βAla]H[AEEA]IKKILS[dK]IKKLL-NH2; N-terminus assumed), the MIC was over 190 µg/mL with S. aureus USA300 [2], 110 µg/mL (≈ 50.1 µM) in data set [4], over 190 µg/mL against S. aureus ATCC 25923 and over 190 µg/mL in the data set on S. aureus Newman.
Turning to `CC[C@H](C)[C@H](NC(=O)COCCOCCNC(=O)CNC(=O)[C@@H]1CCCN1C(=O)[C@H](CCC(=O)O)NC(=O)[C@H](CC(C)C)NC(=O)CNC(=O)[C@@H](N)CCC(=O)O)C(=O)N[C@@H](CCCCN)C(=O)N[C@@H](CCCCN)C(=O)N[C@H](C(=O)N[C@@H](CC(C)C)C(=O)N[C@@H](CO)C(=O)N[C@H](CCCCN)C(=O)N[C@H](C(=O)N[C@@H](CCCCN)C(=O)N[C@@H](CCCCN)C(=O)N[C@@H](CC(C)C)C(=O)N[C@@H](CC(C)C)C(N)=O)[C@@H](C)CC)[C@@H](C)CC` [COMB1-PEG-DK5] (H-EGLEPG[AEEA]IKKILS[dK]IKKLL-NH2; N-terminus assumed), the MIC (against S. aureus USA300 [2]; in data set [4]; against S. aureus ATCC 25923; in the data set on S. aureus Newman) was over 190 µg/mL in each case.
For the compound `CC[C@H](C)[C@H](N)C(=O)N[C@@H](CCCCN)C(=O)N[C@@H](CCCCN)C(=O)N[C@H](C(=O)N[C@@H](CC(C)C)C(=O)N[C@@H](CO)C(=O)N[C@H](CCCCN)C(=O)N[C@H](C(=O)N[C@@H](CCCCN)C(=O)N[C@@H](CCCCN)C(=O)N[C@@H](CC(C)C)C(=O)N[C@@H](CC(C)C)C(N)=O)[C@@H](C)CC)[C@@H](C)CC` [DK5] (H-IKKILS[dK]IKKLL-NH2; N-terminus assumed), in the data set on S. aureus USA300 [2], the MIC was over 190 µg/mL. In addition, the cationic charge entry in data set [3] is recorded as “+6”.
With temporin A, the MIC in data set [5] is 8 µM. Moreover, in data set [5] (at 2 × MIC), the “killed intracellular MRSA” value is 20%.
Consider `CC[C@H](C)[C@H](NC(=O)COCCOCCNC(=O)[C@H](Cc1c[nH]cn1)NC(=O)CCN)C(=O)N[C@@H](CCCCN)C(=O)N[C@@H](CCCCN)C(=O)N[C@H](C(=O)N[C@@H](CC(C)C)C(=O)N[C@@H](CO)C(=O)N[C@H](CCCCN)C(=O)N[C@H](C(=O)N[C@@H](CCCCN)C(=O)N[C@@H](CCCCN)C(=O)N[C@@H](CC(C)C)C(=O)N[C@@H](CC(C)C)C(N)=O)[C@@H](C)CC)[C@@H](C)CC` [CAR-PEG-DK5] (H-[βAla]H[AEEA]IKKILS[dK]IKKLL-NH2; N-terminus assumed), for which the MIC with S. aureus USA300 [2] was over 190 µg/mL; in data set [4], 40 µg/mL (≈ 22.5 µM); against S. aureus ATCC 25923, over 190 µg/mL; with S. aureus Newman it was over 190 µg/mL.
With temporin B, in data set [5], the MIC is 16 µM. Further, in data set [5] (at 4 × MIC), the “killed intracellular MRSA” value was 40%.
